{
  "source": "patent US20090123565A9",
  "about": "“Copper-dependent non-traditional pro-inflammatory cytokine export and methods, compositions and kits relating thereto” (Maine Medical Center Research Institute, priority 2001, published 2009)",
  "key": {"[1]": {"system": "IL1α release from NIH 3T3 cell transfectants", "assay": "Heat shock-induced release of IL1α from NIH 3T3 cell transfectants (immunoblot of conditioned media)", "type": "cell-based, human", "description": "FIG. 5, comprising FIGS. 5A and 5B, depict the involvement of Cu^2+ in IL1α release. FIG. 5A is an image depicting results obtained using NIH 3T3 cells stably transfected with mIL1α-βGal. The cells were incubated for 18 hours at 37 C in the absence and presence of the Cu^2+ chelator, tetrathiomolybdate (TTM) as indicated and the untreated and treated cells either maintained at 37 C or subjected to heat shock as described in FIG. 3. The conditioned medium was evaluated for IL1α-βGal release by IL1α immunoblot analysis, and cell lysates from TTM-treated cells were used to monitor the intracellular level of IL1α-βGal expression. […] FIG. 5B is an image depicting release of IL1α-βGal in myc-S100A13 and IL1α-βGal NIH 3T3 cell cotransfectants and in insert-less vector and mIL1α-βGal NIH 3T3 cell transfectants in the presence and absence actinomycin D (10 μg/ml), as indicated, in response to heat shock. Conditioned media were processed and evaluated for IL1α-βGal immunoblot analysis as described in Tarantini et al. (2001).\nStable NIH 3T3 cell transfectants were generated accordingly with the following cDNA constructs cloned into pMEXneo (Tarantini, et al. 2001; Tarantini, et al. 1995; Tarantini, et al. 1998; LaVallee, et al. 1998; Carreira, et al. 1998; Landriscina, et al., 2001): human S100A13 with an amino-terminal fusion to a 6 Myc Tag (Myc-S100A13) (Landriscina, et al., 2001); human Myc-S100A13ΔBR (Landriscina, et al., 2001); human mIL1α (residues 113-271); human mIL1α with a carboxy-terminal fusion to a βGalactosidase tag (mIL1α-βGal) (Tarantini, et al. 2001); and pIL1α (residues 1-271) with a carboxy-terminal fusion to βGalactosidase (pIL1α-βGal) (Tarantini, et al. 2001). Recombinant human mIL1α was provided by Hoffmann-LaRoche. Recombinant human S100A13, as well as S100A13ΔBR, a S100A13 construct with the basic residue rich domain (residues 88 to 98) deleted, were generated as previously described (Landriscina, et al., 2001).\nNIH 3T3 cell transfectants were grown to 70-80% confluency and prior to temperature stress, the cells were washed with serum-free DMEM. The heat shock was performed as previously described (Tarantini et al., 1995) in serum-free DMEM for 110 min at 42° C. Control cultures were incubated at 37° C. in serum-free DMEM. […] Immunoprecipitated and eluted proteins were resolved by 8% and 12% acrylamide SDS-PAGE, respectively, and evaluated by either IL1α (Tarantini, et al. 2001) or Myc (Landriscina, et al., 2001) immunoblot analysis. […] The effects of actinomycin D (Sigma Chemical Co., St. Louis, Mo.), cyclohexamide (Sigma) and tetrathiomolybdate (Sigma-Aldrich) on IL1α release were evaluated as previously reported (LaVallee et al., 1998)."}, "[2]": {"system": "balloon-injured rat carotid artery", "assay": "Cell proliferation in injured arterial wall (α-smooth muscle actin and PCNA immunostaining)", "type": "in vivo, Sprague-Dawley rats", "description": "In order to address the mechanisms underlying the effect of copper chelation on neointima formation, TTM was administered for 2 weeks before the balloon injury and daily after that until the animals were euthanized at the 4th and 7th day after the procedure. Accordingly, TTM-free animals euthanized 4 and 7 days after the injury were used as controls.\nProliferating cell nuclear antigen (PCNA) analysis was used to quantify the proliferative activity of cells at the balloon injury sites, and it was performed according to Siitonen et al. Briefly, PCNA-positive cells were counted in the vessel cross sections using a standard light microscope equipped with an ocular reticule (magnification ×10) and a ×40 objective. At least 500 nuclei were counted from each slide. The sections were photographed under low power, the images were video-digitized, and stored in the image analysis system (Qwin Lite 2.2, Leica). Staining results were expressed as percentage of PCNA-immunoreactive cell nuclei. Faint diffuse nuclear staining seen in some tissue sections was not included in the PCNA score.\nMacrophage migration was evaluated by immunostaining with the macrophage-specific monoclonal antibody CD11b (MAC1) in acetone/ethanol fixed sections. To quantitate the extent of macrophage invasion, the area occupied by MAC1-positive cells as a percentage of the total area of the neointima was determined. The number of SMCs in the injured artery was counted at day 4, 7 and 14 by the modified method of Prescott et al. Briefly, the cross-sections were subjected to immunohistostaining against α-smooth muscle actin using a commercially available detection system (DAKO) and counter-stained with hematoxylin. The number of nuclei that were accompanied by α-smooth muscle actin-positive cytoplasm was counted at a magnification of ×40 in 10 independent sections from each rat by an observer in a blind manner."}},
  "data": [
    {"smiles": "[NH4+].[NH4+].[SH-].[SH-].[S]=[Mo]=[S]", "note": "[TTM, ammonium tetrathiomolybdate]", "values": [
      {"measurement": "concentration at which TTM inhibited release of IL1α in response to heat shock", "setting": "[1]; NIH 3T3 cells stably transfected with mIL1α-βGal, incubated 18 hours at 37 C with TTM, then heat shock, IL1α immunoblot (FIG. 5A)", "value": 250, "unit": "nM"},
      {"measurement": "repression of release of IL1α-βGal in response to temperature stress", "setting": "[1]; TTM introduced into the Myc-S100A13 and IL1α-βGal cotransfectant system with actinomycin D", "value": "able to repress"},
      {"measurement": "SMA-positive cells in the neointima vs TTM-free rats", "setting": "[2]; 7 and 14 days after the injury", "value": "significantly less abundant"},
      {"measurement": "PCNA-positive cells in the neointimal area", "setting": "[2]; 14 days after balloon angioplasty, 10 mg/kg, 2 weeks before/2 weeks after injury, n=5, P<0.05", "value": "significant reduction"},
      {"measurement": "SMA-positive cells in the neointima vs TTM-free rats", "setting": "[2]; day 4 after the balloon injury", "value": "No significant difference"}
    ]}
  ]
}
